What was measured:
[1] = system: absolute neutrophil count (ANC); assay: Degree of neutropenia in phase I studies of S-CKD602 and NL-CKD602; format: in vivo, human; conditions: patients with refractory solid tumors
Excerpt: (§1) To examine the relationship between S-CKD602 PK and monocytes (MO) in patients, we evaluated the degree of neutropenia and monocytopenia as part of phase I studies of S-CKD602 and non-liposomal CKD-602 (NL-CKD602) in patients with refractory solid tumors. After administration of NL-CKD602, the % decrease at nadir in absolute neutrophil count (ANC) and MO were 86±11% and 87±12%, respectively (P>0.05). For NL-CKD602, the ratio of % decrease in MO to ANC was 1.1±0.4. After administration of S-CKD602, the % decrease at nadir in ANC and MO were 42±30% and 58±34%, respectively (P=0.001). For S-CKD602, the ratio of % decrease in MO to ANC was 2.1±2.0. The relationship between the % decrease in MO at nadir and CL of encapsulated CKD-602 and the release of CKD-602 from S-CKD602 in plasma are presented in FIGS. 3 and 4, respectively. […] The CL of encapsulated drug and release of drug from the liposome in plasma is related to a reduction in MO. […] Consistent with the PK-PD interaction between S-CKD602 and MO we also have reported that decreased DOXIL® CL from cycle 1 to 3 is related to a reduction in MO during each subsequent cycle (Gabizon et al., (1994) Cancer Res. 54: 987-992; La-Beck et al., (2009) J. Clin. Oncol. 27(15S)).

monocytes (MO) = assay: Degree of monocytopenia in phase I studies of S-CKD602 and NL-CKD602; format: in vivo, human; conditions: patients with refractory solid tumors
Excerpt: as §1

Q: How did the “% decrease at nadir in absolute neutrophil count (ANC)” value [1] turn out when CC[C@@]1(O)C(=O)OCc2c1cc1n(c2=O)Cc2c-1nc1ccccc1c2CCNC(C)C [NL-CKD602] was run?
A: 86±11%

Q: What about the “% decrease at nadir in monocytes (MO)” value (monocytes (MO)) of the same compound?
A: 87±12%

Q: And the “ratio of % decrease in MO to ANC” value (monocytes (MO))?
A: 1.1±0.4

From patent US20130115271A1, “PREDICTORS OF PHARMACOKINETIC AND PHARMACODYNAMIC DISPOSITION OF CARRIER-MEDIATED AGENTS” (THE UNIVERSITY OF NORTH CAROLINA AT CHAPEL HILL, priority 2010, published 2013)
